Test systems include A549; ACHN; HCT-116; HOP-92; K562; KM12; MDA-MB-231; NCI/ADR-RES; SK-MEL-28; SN12C; SNB-75; SR; SW-620; U-251; DU-145; EKVX; MCF7; RXF 393; SF-268; T47D.
Assay in all cases: NCI-60 cell line screen, 48 h

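These data come from cells grown in 96-well plates and exposed to compound for 48 hours at five concentrations. GI50 = concentration required for 50% inhibition of growth.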 Active and inactive are the calls of the source. No stated cut-off is given here; in the data, active = GI50 up to about 1.1 µM and inactive = higher. Bounds are passed on as bounds.

`O=C(CBr)N1CCC2(CC1)SSC1(CCN(C(=O)CBr)CC1)S2`: the GI50 is 1.98 µM (inactive) with A549; 1.54 µM (inactive) in the test on ACHN; 0.373 µM (active) in the test on HCT-116; 2.1 µM (inactive) in the test on HOP-92; 0.647 µM (active) in the test on K562; 1.7 µM (inactive) in the test on KM12. Further, the GI50 is 2.33 µM (inactive) in the test with MDA-MB-231; 1.97 µM (inactive) with NCI/ADR-RES; 2 µM (inactive) with SK-MEL-28; 1.93 µM (inactive) in the test on SN12C; 2.01 µM (inactive) in the test on SNB-75; 0.178 µM (active) in the test with SR. The GI50 in the test on SW-620 is 0.332 µM (active); in the test with U-251, 1.59 µM (inactive).

Take `O=C(NN1C(=O)c2ccccc2C1=O)c1ccccc1Nc1ccccc1C(=O)NN1C(=O)c2ccccc2C1=O`: the GI50 in the test with ACHN, in the test with DU-145, with EKVX, with HCT-116, with HOP-92 and with K562 was > 100 µM (inactive) throughout. The GI50 in the test with KM12, in the test on MCF7, in the test on MDA-MB-231, in the test with NCI/ADR-RES, with RXF 393 and in the test on SF-268 was > 100 µM (inactive) in each case. In addition, the GI50 in the test on SK-MEL-28, with SN12C, in the test on SNB-75, in the test on SR, in the test with SW-620 and in the test on U-251 was > 100 µM (inactive) throughout.

`COc1cc(C=O)cc(/C=N/n2c3ccccc3c3ccccc32)c1O`: the GI50 with A549 was > 100 µM (inactive); with ACHN, 6.12 µM (inactive); in the test on DU-145, > 100 µM (inactive); in the test on EKVX, 43.1 µM (inactive); in the test on HCT-116, 10.9 µM (inactive); in the test on HOP-92, 2.91 µM (inactive). Further, the GI50 was 12 µM (inactive) with K562; 35.8 µM (inactive) in the test on KM12; 3.78 µM (inactive) with MCF7; 17.4 µM (inactive) with MDA-MB-231; 25 µM (inactive) in the test on RXF 393; 4.34 µM (inactive) with SF-268. In addition, the GI50 in the test on SK-MEL-28 was 5.83 µM (inactive); with SN12C, 5.46 µM (inactive); with SNB-75 it was 2.79 µM (inactive); with SR it was 4.72 µM (inactive); in the test on SW-620, 9.73 µM (inactive); with T47D, > 100 µM (inactive). In the test on U-251, the GI50 was 9.04 µM (inactive).

In the case of `CC(=O)Oc1ccc2cc(Oc3ccc(Cl)cc3)c(=O)oc2c1`, the GI50 with A549 was 21.6 µM (inactive); in the test with ACHN, 38.8 µM (inactive); in the test with DU-145 it was 53.6 µM (inactive); in the test on EKVX, 36.5 µM (inactive); in the test on HCT-116, 27.5 µM (inactive); with HOP-92, 38.1 µM (inactive). The GI50 in the test with KM12 is 37.8 µM (inactive); with MCF7, 32.7 µM (inactive); in the test with MDA-MB-231, 44.3 µM (inactive); with RXF 393, 46.9 µM (inactive); in the test on SF-268, 53.8 µM (inactive); in the test with SK-MEL-28, 41.5 µM (inactive). Further, the GI50 with SN12C was 29.6 µM (inactive); in the test on SNB-75, 75.5 µM (inactive); in the test with SR, 64.7 µM (inactive); in the test with SW-620 it was 40.8 µM (inactive); in the test on T47D, 34.1 µM (inactive); with U-251 it was 42.8 µM (inactive).

Consider `CCN(CC)c1ccc2cc(-c3csc(C)n3)c(=O)oc2c1`, for which the GI50 in the test on A549 is > 100 µM (inactive); with ACHN, 70.3 µM (inactive); in the test with DU-145, > 100 µM (inactive); in the test with EKVX, > 100 µM (inactive); in the test on HCT-116, 69.8 µM (inactive); with HOP-92, 27.4 µM (inactive). In addition, the GI50 in the test on K562 was > 100 µM (inactive); in the test with KM12, 13.5 µM (inactive); in the test with MCF7, > 100 µM (inactive); in the test on MDA-MB-231, 71.8 µM (inactive); with RXF 393, 37.3 µM (inactive); with SF-268, 81.3 µM (inactive). Besides, the GI50 with SK-MEL-28 is > 100 µM (inactive); with SN12C, > 100 µM (inactive); in the test on SNB-75, 0.0585 µM (active); in the test with SR it was 62.2 µM (inactive); in the test with SW-620, > 100 µM (inactive); in the test on T47D, 2.14 µM (inactive). Further, the GI50 in the test on U-251 was 57.7 µM (inactive).

Turning to `COC1(OC)CCCCCCCCC(OC)(OC)CCCCCCCC1`, the GI50 in the test with A549, in the test with ACHN, with DU-145, in the test on EKVX, in the test on HCT-116 and in the test on HOP-92 was > 100 µM (inactive) each time. For the same molecule, the GI50 in the test on K562, in the test with KM12, with MCF7, with NCI/ADR-RES, in the test with RXF 393 and in the test on SF-268 was > 100 µM (inactive) each time. The GI50 in the test on SK-MEL-28, in the test with SN12C, in the test with SNB-75, in the test with SR, in the test with SW-620 and in the test with T47D was > 100 µM (inactive) throughout. Besides, in the test on U-251, the GI50 was > 100 µM (inactive).

As for `Cc1nn(C(=O)c2ccccc2O)c2c1C(c1ccc3ccccc3c1O)SC(=N)N2` (centres undefined), the GI50 in the test on A549 is 4.91 µM (inactive); with ACHN it was 3.8 µM (inactive); with EKVX, 9.79 µM (inactive); with HCT-116, 1.5 µM (inactive); in the test with HOP-92 it was 0.378 µM (active); in the test with K562, 3.6 µM (inactive). Moreover, the GI50 is 7.46 µM (inactive) in the test with KM12; 2.44 µM (inactive) with MCF7; 3.05 µM (inactive) with MDA-MB-231; 6.56 µM (inactive) with RXF 393; 4.89 µM (inactive) in the test with SF-268; 5.16 µM (inactive) with SK-MEL-28. The GI50 in the test on SN12C is 6.58 µM (inactive); in the test on SNB-75 it was 2.85 µM (inactive); in the test on SR, 4.53 µM (inactive); in the test with SW-620 it was 4.61 µM (inactive); in the test on T47D, 1.87 µM (inactive); in the test with U-251 it was 3.66 µM (inactive).

In the case of `C=C1CC23CCC4C(C)(C(=O)O)CCCC4(C)C2CCC1C3` (centres undefined), the GI50 was 35.5 µM (inactive) with A549; 36.5 µM (inactive) with ACHN; 65.3 µM (inactive) in the test on DU-145; 20.6 µM (inactive) in the test with EKVX; 32.7 µM (inactive) with HCT-116; 32.8 µM (inactive) with HOP-92. The GI50 with K562 was 46.3 µM (inactive); in the test with KM12 it was 41.6 µM (inactive); with MCF7 it was 47.3 µM (inactive); in the test on MDA-MB-231, 25.9 µM (inactive); in the test on RXF 393, 33.5 µM (inactive); in the test with SF-268 it was 63.1 µM (inactive). Besides, the GI50 is > 100 µM (inactive) with SK-MEL-28; 38 µM (inactive) in the test on SN12C; 47.8 µM (inactive) with SNB-75; 33.3 µM (inactive) in the test on SR; 30.3 µM (inactive) with SW-620; 38 µM (inactive) in the test on T47D. Besides, the GI50 in the test with U-251 is 48.1 µM (inactive).

As for `Cn1c(=O)c2c(nc(NCCNc3nc4c(c(=O)n(C)c(=O)n4C)n3C)n2C)n(C)c1=O`, the GI50 in the test on A549, in the test on ACHN, in the test with DU-145, in the test on EKVX, in the test with HCT-116 and in the test with HOP-92 was > 100 µM (inactive) throughout. Besides, the GI50 in the test with K562, in the test with KM12, in the test on MDA-MB-231, with NCI/ADR-RES, with RXF 393 and in the test with SF-268 was > 100 µM (inactive) in each case. For the same molecule, the GI50 with SK-MEL-28, in the test with SN12C, in the test on SNB-75, in the test on SR, in the test on SW-620 and in the test with T47D was > 100 µM (inactive) in each case. Besides, the GI50 with U-251 was > 100 µM (inactive).

In the case of `CC(=O)Nc1ccc(NNc2cc(=O)n(C)c(=O)[nH]2)cc1`, the GI50 in the test with A549 is 19 µM (inactive); in the test with ACHN, 2.91 µM (inactive); with DU-145, 16 µM (inactive); in the test on EKVX, 17 µM (inactive); in the test with HCT-116, 4.33 µM (inactive); in the test on HOP-92, 2 µM (inactive). Further, the GI50 in the test on K562 is 33.3 µM (inactive); with KM12, 12 µM (inactive); in the test on MCF7 it was 5.57 µM (inactive); with MDA-MB-231, 12.1 µM (inactive); in the test on NCI/ADR-RES, 16.7 µM (inactive); in the test with SK-MEL-28, 11.9 µM (inactive). Also, the GI50 is 10.1 µM (inactive) in the test with SN12C, 3.47 µM (inactive) with SR, 2.98 µM (inactive) in the test on SW-620 and 11.7 µM (inactive) with U-251.

For the molecule `CCCCCCc1cc2cc(C(=O)Nc3cccc(F)c3)c(=N)oc2cc1O`, the GI50 with A549 was 3.27 µM (inactive); with ACHN it was 3.16 µM (inactive); with DU-145 it was 3.56 µM (inactive); in the test with EKVX, 2.34 µM (inactive); in the test with HCT-116 it was 2.86 µM (inactive); in the test with K562, 1.15 µM (inactive). Further, the GI50 was 2.71 µM (inactive) in the test with KM12; 3.19 µM (inactive) in the test with MCF7; 2.35 µM (inactive) with NCI/ADR-RES; 2.32 µM (inactive) in the test with SF-268; 2.67 µM (inactive) in the test with SK-MEL-28; 2.17 µM (inactive) in the test with SR. Further, the values for the GI50 in the test with SW-620, in the test with T47D and in the test with U-251 were 3.39 µM (inactive), 2.04 µM (inactive) and 1.97 µM (inactive), respectively.

These data come from ChEMBL document CHEMBL1201862, “PubChem BioAssay data set” (2004).
